# According to patent US20120301478A1, “Pharmaceutical for Preventing or Treating Disorders Accompanied by Ocular Angiogenesis and/or Elevated Ocular Vascular Permeability” (priority 2010, published 2012):
# Assays:
# [1] = test system: choroidal neovascularization (CNV) model; experiment: Laser-induced choroidal neovascularization (CNV) mouse model, CNV volume (Experiment 1); format: in vivo, mouse (male C57BL/6J)
# Description: In the CNV model, macrophages migrate by the initiation of an inflammation by laser irradiation. Since VEGF are produced, neovascular vessels are generated, and increased vascular permeability is observed as the result thereof, the CNV model is one of models that produce VEGF. […] The both eyes of a male C57BL/6J mice having a body weight of about 20 g (6-week old) were irradiated with laser (irradiated by 4 to 6 spots per one eye) to induce CNV experimentally. As mentioned below, an anti-VEGF antibody and/or fidarestat were administered as a drug. […] As the anti-VEGF antibody, an anti-mouse VEGF antibody purchased from R&D Systems was used. The number of examples was three or four per a group, and the following four groups were set. […] After completion of the laser irradiation, the mice were bred by general breeding for 7 days, and thereafter the eye balls were excised and the volume of CNV appeared in the choroid was measured. […] The volume of CNV was measured by importing an image in the vicinity of CNV by a confocal laser microscope (Zeiss LSM5 Pascal) and using image analysis software (NIH Image J). […]
# [2] = test system: choroidal neovascularization (CNV) model, increased vascular permeability; experiment: Laser-induced CNV mouse model, fluorescein-fluorescent fundus angiography, vascular permeability (Experiment 2); format: in vivo; conditions: fidarestat forced oral 16 mg/kg twice a day (32 mg/kg/day); 7 days after laser irradiation
# Method: An anti-VEGF antibody and/or fidarestat were administered to a mouse that had been treated to induce CNV in a similar manner to that in Experiment 1. […] The number of examples was three or four per a group, and the following five groups were set. […] The both eyes were photographed by an eye-fundus camera, and the obtained eye-ground picture was evaluated in a blinded manner according to the following criteria. • grade 0: nonleaky, no leakage from blood-vessel • grade 1: questionable leakage, weak leakage was observed • grade 2: leaky, leakage was observed • grade 3: pathologically significant leakage, clear leakage was observed on wide area The ratio of the number of the FA grade 3 lesions (%) in each eye was calculated, and the average value of the calculated rates in each group was obtained. […]
# STZ-diabetic rat retina = conditions: streptozotocin (STZ)-diabetic rat, cited from earlier work
# [3] = injected in the vitreous body of a human; cited from earlier work
Compound,"dose at which the maximum medicinal effect is shown ([1]; CNV mouse model, fidarestat)","effect of suppressing CNV (CNV volume) compared to the untreated group ([1]; fidarestat 32 mg/kg/day in powder feedstuff, from 2 days before to 7 days after laser irradiation)",ratio of the number of the FA grade 3 lesions [2],overexpression of VEGF (STZ-diabetic rat retina; retina),retinal oxidative stress (STZ-diabetic rat retina),disappearing half-life [3]
"NC(=O)[C@@H]1C[C@]2(NC(=O)NC2=O)c2cc(F)ccc2O1 [fidarestat, (2S,4S)-6-fluoro-2′,5′-dioxospiro[chroman-4,4′-imidazolidine]-2-carboxamide]",32 mg/kg/day,significant effect of suppressing CNV was observed (p<0.05),approximately the same rate as that in the 2 ng anti-VEGF antibody-administered group,suppresses,suppresses,–
"ranibizumab: typical anti-VEGF agent, anti-VEGF antibody used as intravitreal injection",–,–,–,–,–,9 days
